Laboratory results published in ChEMBL document CHEMBL4043199, “Synthesis and optimization of 4,5,6,7-tetrahydrooxazolo[4,5-c]pyridines as potent and orally-active metabotropic glutamate receptor 5 negative allosteric modulators” (Bioorg Med Chem Lett, 2017).

Legend:
[1] = biological target: Metabotropic glutamate receptor 5 (Homo sapiens, UniProt P41594); assay: Negative allosteric modulation of human recombinant mGluR5 expressed in HEK293 cells assessed as inhibition of glutamate-induced calcium mobilization preincubated for 2 mins followed glutamate addition measured by fluorescence assay; format: functional, cell-based
[2] = Metabolic stability in human hepatic microsomes assessed as parent compound remaining at 1 uM after 30 mins in presence of NADPH by LC-MS/MS analysis relative to control; format: ADME, Microsome; details: liver microsomes, read-out: Stability
[3] = Metabolic stability in rat hepatic microsomes assessed as parent compound remaining at 1 uM after 30 mins in presence of NADPH by LC-MS/MS analysis relative to control; format: ADME, Microsome; details: liver microsomes, read-out: Stability

Metabotropic glutamate receptor 5, sequence (P41594 whole entry): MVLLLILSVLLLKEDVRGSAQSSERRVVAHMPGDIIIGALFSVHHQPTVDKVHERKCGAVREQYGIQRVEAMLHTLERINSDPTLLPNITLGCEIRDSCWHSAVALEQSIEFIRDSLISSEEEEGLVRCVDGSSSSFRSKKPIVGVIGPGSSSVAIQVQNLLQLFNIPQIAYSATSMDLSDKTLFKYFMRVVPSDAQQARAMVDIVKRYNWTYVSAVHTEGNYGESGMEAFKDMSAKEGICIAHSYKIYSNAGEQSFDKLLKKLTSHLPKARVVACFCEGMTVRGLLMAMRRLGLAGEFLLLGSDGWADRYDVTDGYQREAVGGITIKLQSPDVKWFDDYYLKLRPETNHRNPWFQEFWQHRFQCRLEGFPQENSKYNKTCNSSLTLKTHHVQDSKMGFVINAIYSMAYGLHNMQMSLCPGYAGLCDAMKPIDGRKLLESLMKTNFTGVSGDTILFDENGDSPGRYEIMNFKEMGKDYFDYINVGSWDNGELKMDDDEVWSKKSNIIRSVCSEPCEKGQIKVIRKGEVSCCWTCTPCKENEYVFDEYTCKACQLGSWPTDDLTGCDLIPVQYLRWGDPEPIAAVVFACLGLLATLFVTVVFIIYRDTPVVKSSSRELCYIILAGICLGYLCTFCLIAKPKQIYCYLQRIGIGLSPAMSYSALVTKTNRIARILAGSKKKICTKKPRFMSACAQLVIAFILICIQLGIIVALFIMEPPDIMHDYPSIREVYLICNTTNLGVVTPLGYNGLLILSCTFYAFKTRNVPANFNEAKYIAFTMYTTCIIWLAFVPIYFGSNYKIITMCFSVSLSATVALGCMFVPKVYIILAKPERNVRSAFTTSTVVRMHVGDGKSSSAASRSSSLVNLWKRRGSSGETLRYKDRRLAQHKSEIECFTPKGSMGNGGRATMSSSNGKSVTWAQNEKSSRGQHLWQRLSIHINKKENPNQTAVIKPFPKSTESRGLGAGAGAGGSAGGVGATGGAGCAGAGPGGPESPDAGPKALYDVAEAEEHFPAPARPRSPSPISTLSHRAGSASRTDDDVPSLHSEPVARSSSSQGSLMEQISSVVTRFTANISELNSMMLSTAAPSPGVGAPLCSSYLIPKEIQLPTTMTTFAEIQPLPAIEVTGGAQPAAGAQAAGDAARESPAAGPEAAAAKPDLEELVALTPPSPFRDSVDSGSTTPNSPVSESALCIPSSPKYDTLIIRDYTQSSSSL

COc1cccc(C(=O)N2CCc3oc(-c4ccc(F)cn4)nc3C2)c1
IC50 [1]: 157 nM
remaining at 0.5 h, 1 µM [2]: > 91%
remaining at 0.5 h, 1 µM [3]: > 91%

N#Cc1cc(F)cc(C(=O)N2CCc3oc(-c4ccc(F)cn4)nc3C2)c1
IC50 [1]: 403 nM
remaining at 0.5 h, 1 µM [2]: > 97%
remaining at 0.5 h, 1 µM [3]: > 97%

O=C(c1cccc(Cl)c1)N1CCc2oc(-c3ccc(F)cn3)nc2C1
IC50 [1]: 50 nM
remaining at 0.5 h, 1 µM [2]: > 91%
remaining at 0.5 h, 1 µM [3]: > 91%
